Article PMC11249953, “c-KIT inhibitors reduce pathology and improve behavior in the Tg(SwDI) model of Alzheimer’s disease” (Life Science Alliance, 2024)
Values joined by “and” are separate entries in the source; they are usually repeats but may differ in a detail not shown here. Equal entries are not always repeated.

Key:
[1] = test system: microglial PAR2-tryptase interactions in TgAPP mice; experiment: Proximity ligation assay PAR2-tryptase; assay type: in vivo, mouse; conditions: vs DMSO
Description: Slides containing two consecutive brain slices were blocked in Duolink blocking solution for 1 h in a slide chamber containing water at 37°C. Blocking solution was then removed and PAR2 (1:250) and tryptase (1:250) primary antibodies were added at the concentrations specified above and incubated at 4°C overnight. The next day, primaries were removed and slides were washed twice for 5 min in wash buffer before addition of plus and minus probes for incubation at 37°C in a humid chamber for 1 h. Slides were then washed again twice for 5 min in wash buffer before addition of ligation buffer for incubation at 37°C in a humid chamber for 30 min. Next, slides were washed twice for 5 min in wash buffer, and polymerase was added for incubation at 37°C in a humid chamber for 100 min. Finally, slides were washed twice for 10 min in wash buffer and mounted using DAPI mounting medium and a glass coverslip. Slides were imaged on a Leica Dmi8 light microscope.

CSF1R = target: T1, CSF1R (Homo sapiens, UniProt P07333); experiment: KINOMEscan competition binding, CSF1R; conditions: 10 µM compound; for remaining binding at 10 µM: lower = stronger binding, read-out: CSF1R %Ctrl @ 10000nM
T1 construct: DNA label for qPCR read-out (T7 phage fusion or DNA tag); purchased Eurofins DiscoverX Corporation; host or cells: T7 phage in E. coli (BL21-derived) or HEK-293
T1 sequence (P07333 20-972): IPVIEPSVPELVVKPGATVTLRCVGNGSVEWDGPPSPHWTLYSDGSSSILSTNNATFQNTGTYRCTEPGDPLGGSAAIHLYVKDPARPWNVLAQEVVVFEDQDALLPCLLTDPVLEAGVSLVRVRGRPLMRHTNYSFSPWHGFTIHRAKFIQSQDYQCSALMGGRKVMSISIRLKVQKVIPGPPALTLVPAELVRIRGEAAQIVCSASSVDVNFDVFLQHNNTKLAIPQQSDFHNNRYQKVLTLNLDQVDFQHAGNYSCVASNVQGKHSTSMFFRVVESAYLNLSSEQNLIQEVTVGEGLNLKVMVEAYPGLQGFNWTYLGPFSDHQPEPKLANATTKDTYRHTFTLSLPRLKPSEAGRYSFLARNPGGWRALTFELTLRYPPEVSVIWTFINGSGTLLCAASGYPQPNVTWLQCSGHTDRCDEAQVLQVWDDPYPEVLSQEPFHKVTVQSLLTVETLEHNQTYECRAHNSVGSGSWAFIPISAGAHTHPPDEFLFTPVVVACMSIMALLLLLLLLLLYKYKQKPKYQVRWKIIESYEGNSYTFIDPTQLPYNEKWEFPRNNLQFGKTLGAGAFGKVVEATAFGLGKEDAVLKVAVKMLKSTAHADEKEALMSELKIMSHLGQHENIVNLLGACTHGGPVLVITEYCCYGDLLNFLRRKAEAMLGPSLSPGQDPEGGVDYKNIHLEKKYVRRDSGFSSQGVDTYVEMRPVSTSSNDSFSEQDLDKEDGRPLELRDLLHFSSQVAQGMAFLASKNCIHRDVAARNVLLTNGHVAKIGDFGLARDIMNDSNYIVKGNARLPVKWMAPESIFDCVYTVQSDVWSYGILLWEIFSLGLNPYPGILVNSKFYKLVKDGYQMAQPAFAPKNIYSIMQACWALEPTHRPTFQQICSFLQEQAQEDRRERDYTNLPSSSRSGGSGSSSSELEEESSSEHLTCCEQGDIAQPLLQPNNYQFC
Description: (§1) The KINOMEscan screening platform (Eurofins DiscoverX Corporation) was performed using active site-directed competition binding assay to quantitatively measure interactions between BK40143 and BK40197 and more than 450 human kinases and disease relevant mutant variants. […] Screening “hits” are identified by measuring the amount of kinase captured in test (BK40143 and BK40197) versus control samples by using a quantitative and ultra-sensitive qRT-PCR method that detects the associated DNA label. BK40143 and BK40197 were screened at 10 µM concentration, and results for primary screen binding interactions were reported as “% Ctrl” (POC), where lower numbers indicate stronger hits and calculated as follows: [test compound signal−positive control signal/negative control signal−positive control signal]×100
(§2) negative control = DMSO (100% Ctrl)
(§3) positive control = control compound (0% Ctrl)
(§4) Based on screening data from of profiled compounds, a proportional relationship between primary screening results and corresponding compound/target affinities can be described as binding constants (Kd values) for the indicated ranges of POC values with tighter binding (higher affinity) interactions associated with lower POC values and weaker binding (lower affinity) associated with higher POC values. Briefly, kinase-tagged T7 phage strains were grown in parallel in 24-well blocks in an E. coli host derived from the BL21 strain. E. coli were grown to log-phase and infected with T7 phage from a frozen stock (multiplicity of infection = 0.4) and incubated with shaking at 32°C until lysis (90–150 min). The lysates were centrifuged (6,000g) and filtered (0.2 μm) to remove cell debris. The remaining kinases were produced in HEK-293 cells and subsequently tagged with DNA for qRT-PCR detection. Streptavidin-coated magnetic beads were treated with biotinylated small molecule ligands for 30 min at RT to generate affinity resins for kinase assays. The liganded beads were blocked with excess biotin and washed with blocking buffer (1% BSA, 0.05% Tween 20, 1 mM DTT; SeaBlock [Pierce]) to remove unbound ligand and to reduce non-specific phage binding. Binding reactions were assembled by combining kinases, liganded affinity beads, and test compounds in 1x binding buffer (20% 0.17x PBS, 0.05% Tween 20, 6 mM DTT; SeaBlock). Test compounds were prepared as 100x stocks in 100% DMSO and directly diluted into the assay. All reactions were performed in polypropylene 384-well plates in a final volume of 0.02 ml. The assay plates were incubated at RT with shaking for 1 h and the affinity beads were washed with wash buffer (1x PBS, 0.05% Tween 20). […] The kinase concentration in the eluates was measured by qRT-PCR.

SYK = target: T2, SYK (Homo sapiens, UniProt P43405); experiment: KINOMEscan competition binding, SYK; conditions: 10 µM compound; for remaining binding at 10 µM: lower = stronger binding, read-out: SYK %Ctrl @ 10000nM (POC)
T2 construct: DNA label for qPCR read-out (T7 phage fusion or DNA tag); purchased Eurofins DiscoverX Corporation; host or cells: T7 phage in E. coli (BL21-derived) or HEK-293
Description: as §1, §2, §3, §4

beclin-1 in TgAPP mice = experiment: Western blot for beclin-1 in brain; assay type: in vivo, mouse; conditions: BK40143 5 mg/kg, BK40197 45 mg/kg, vs DMSO
Description: Brain hemispheres from treated and untreated animals were lysed in 1x STEN buffer and protein concentrations were measured via BCA assay. Samples were normalized to 1 μg/μl and added to 2x Laemmli loading buffer + β-mercaptoethanol and boiled for 10 min to denature the protein. 15 μg of sample were then loaded in 4–12% Bis–Tris gels with MES buffer and electrophoresed, before transfer to a nitrocellulose membrane, where they were blocked with 5% dry milk in 1x TBST and incubated overnight with an anti-Beclin-1 primary antibody (cat. #3739S; Cell Signaling) or a phospho-c-KIT antibody (cat. #44-496G; Invitrogen). The next day, the membrane was washed and treated for 1 h with a goat anti-rabbit HRP-linked secondary followed by SuperSignal West Dura Extended Duration Substrate (cat. #37071; Thermo Fisher Scientific) and imaged on an Amersham Imager 600. This procedure was repeated the next day with an anti-mouse actin primary as a loading control.

mice = experiment: Nesting, source data sheets Nesting (mouse line not given); assay type: in vivo; parameters: key to Nesting Score AVG (of three observers) / Nesting Score AVG, group mean / Nesting Score / Nesting Score AVG: 0 = nestlet untouched to 5 = near perfect nest; key to Nesting Score (NICK) / Nesting Score (MICHAELINE) / Nesting Score(MAX) / Nesting Score (KORLISS): 0: nestlet untouched; 1: nestlet hardly touched (more than 90% intact); 2: nestlet partially torn (50–90% intact); 3: mostly shredded but no identifiable nest, less than 50% intact but less than 90% in a single quarter of the cage; 4: An identifiable but flat nest, more than 90% torn and material is gathered in a single quarter of the cage; 5: A near perfect nest, more than 90% of the nestlet is torn and the nest is a crater, with walls higher than the mouse body height; conditions: for Nesting Score (MICHAELINE): observer MICHAELINE; for Nesting Score (NICK): observer NICK
Description: Mice were singly housed in standard cages overnight (6 pm–6 am) with a 3-gram cloth nestlet and allowed to freely behave. The next day, nestlets were weighed and photographed, and amount of nestlet shredding was recorded by three observers based on the following scale: 0—nestlet untouched, 1—nestlet hardly touched (more than 90% intact), 2—nestlet partially torn (50–90% intact), 3—mostly shredded but no identifiable nest, less than 50% intact but less than 90% in a single quarter of the cage, 4—An identifiable but flat nest, more than 90% torn and material is gathered in a single quarter of the cage, 5—A near perfect nest, more than 90% of the nestlet is torn and the nest is a crater, with walls higher than the mouse body height.

[2] = 2.5mg/kg, individual mice, listed as 143
[3] = 5.0mg/kg, individual mice, listed as 143

Which “mast cell tryptase / microglial PAR2-tryptase interactions (proximity ligation)” value [1] does the source give for `Cc1cccc(-c2cc3nccc(Nc4ccccc4)c3s2)c1` [BK40143] here?
Its value is “reduced mast cell mediators such as tryptase”.

What about the inhibition at 10 µM (CSF1R) of the same compound?
The inhibition at 10 µM was 62%.

And the remaining binding at 10 µM (CSF1R)?
The remaining binding at 10 µM was 38%.

What about the inhibition at 10 µM (SYK) of the same compound?
Its inhibition at 10 µM is 94.5%.

What about the remaining binding at 10 µM (SYK) of the same compound?
The remaining binding at 10 µM was 5.5%.

And the “beclin-1 levels in brain (Western blot)” value (beclin-1 in TgAPP mice)?
Its value is “significant increases in levels of beclin-1”.

And the “Nesting Score AVG, group mean” value (mice; 2.5mg/kg)?
The value was 0.9048.

And the “Nesting Score AVG (of three observers)” value (mice; [2])?
The value was 0 and 1.333 and 2.667 and 1.

What about the “Nestlet Weight” value (mice; 2.5mg/kg, individual mice, listed as 143, in g (unit assumed)) of the same compound?
Its value is 2.6 and 2.8 and 2.7 and 0.9 and 2.5.

And the “Nesting Score(MAX)” value (mice; 2.5mg/kg, observer MAX, individual mice, listed as 143)?
The value was 0 and 2 (nestlet partially torn (50–90% intact)) and 3 (mostly shredded but no identifiable nest, less than 50% intact but less than 90% in a single quarter of the cage) and 1 (nestlet hardly touched (more than 90% intact)).

And the “Nesting Score (MICHAELINE)” value (mice; [2])?
The value was 0 and 1 (nestlet hardly touched (more than 90% intact)) and 2 (nestlet partially torn (50–90% intact)).

What about the “Nesting Score (NICK)” value (mice; [2]) of the same compound?
Its value is 0 and 1 (nestlet hardly touched (more than 90% intact)) and 3 (mostly shredded but no identifiable nest, less than 50% intact but less than 90% in a single quarter of the cage).

And the “Nesting Score AVG, group mean” value (mice; 5.0mg/kg)?
The value was 1.067.

What about the “Nesting Score AVG (of three observers)” value (mice; [3]) of the same compound?
Its value is 1.333 and 0.3333 and 1 and 2 and 0.6667 and 3.667 and 0.

And the “Nestlet Weight” value (mice; 5.0mg/kg, individual mice, listed as 143, in g (unit assumed))?
The value was 2.5 and 2.7 and 2.1 and 2.6 and 2.9 and 0.

And the “Nesting Score(MAX)” value (mice; 5.0mg/kg, observer MAX, individual mice, listed as 143)?
Its value is 2 (nestlet partially torn (50–90% intact)) and 1 (nestlet hardly touched (more than 90% intact)) and 4 and 0.

What about the “Nesting Score (MICHAELINE)” value (mice; [3]) of the same compound?
The value was 1 (nestlet hardly touched (more than 90% intact)) and 0 and 2 (nestlet partially torn (50–90% intact)) and 3 (mostly shredded but no identifiable nest, less than 50% intact but less than 90% in a single quarter of the cage).

What about the “Nesting Score (NICK)” value (mice; [3]) of the same compound?
Its value is 1 (nestlet hardly touched (more than 90% intact)) and 0 and 2 (nestlet partially torn (50–90% intact)) and 4.

What does the source list for `Cc1cccc(-c2cc3nccc(N4CCOCC4)c3s2)c1` [BK40197]?
mast cell tryptase / microglial PAR2-tryptase interactions (proximity ligation) [1]: reduced mast cell mediators such as tryptase; inhibition at 10 µM (CSF1R): 77%; remaining binding at 10 µM (CSF1R): 23%; inhibition at 10 µM (SYK): 56%; remaining binding at 10 µM (SYK): 44%; beclin-1 levels in brain (Western blot) (beclin-1 in TgAPP mice): significant increases in levels of beclin-1; Nesting Score (mice; average score of the raters listed by treatment group, one value per mouse, listed as 197): 2 and 1 and 0.5 and 0 and 3; Nesting Score AVG (mice; nesting, average of the raters, one value per mouse, listed as 197): 2 and 1 and 3 and 0.5 and 0; Nesting Score (KORLISS) (mice; nesting, rater KORLISS, one value per mouse, listed as 197): 2 (nestlet partially torn (50–90% intact)) and 1 (nestlet hardly touched (more than 90% intact)) and 4 and 0; Nesting Score(MAX) (mice; nesting, rater MAX, one value per mouse, listed as 197): 2 (nestlet partially torn (50–90% intact)) and 1 (nestlet hardly touched (more than 90% intact)) and 0; Weight (mice; nestlet weight listed by treatment group, one value per mouse, listed as 197, in g (unit assumed)): 2.1 and 2.8 and 2.5 and 2.6 and 2.9 and 1.7
